Where two headings read alike, the source gives them in different places. Marks after values point to notes of the source that are not given here. Non-standard residues stand in square brackets, D forms with d. Residues, ends and D or L forms follow the SMILES beside them. Trp(6-Cl) = N[C@@H](Cc1c[nH]c2cc(Cl)ccc12)C(=O)O; Pmp = N[C@@H](Cc1ccc(CP(=O)(O)O)cc1)C(=O)O; Ac3c = NC1(C(=O)O)CC1; Aib = CC(C)(N)C(=O)O
Assays:
SJSA-1 = experiment: 72-h MTT cytotoxicity assay, SJSA-1; type: cell-based; conditions: Homo sapiens, SJSA-1; 72-h MTT; Table 1; read-out: IC50 Anti-proliferative effect on cell line SJSA-1
Method: (§1) The fluorescence polarisation competitive HDM2 binding assay described in Example 3 was used. Furthermore, the anti-proliferative potency of the compounds against three human tumour cell lines with different genetic make-up was also determined. […] The cell lines used were as follows: AGS, gastric adenocarcinoma, wild-type p53; H1299, large cell lung carcinoma, p53 null, low HDM2; SJSA-1, primitive multipotential bone sarcoma, wild-type p53, overexpressed HDM2.
(§2) Representative bisarylsulfonamide compounds were tested on a panel of transformed and non-transformed human cell lines, using a standard 72-h MTT cytotoxicity assay [Haselsberger K et al, ibid].

H1299 = experiment: 72-h MTT cytotoxicity assay, H1299; type: cell-based; conditions: Homo sapiens, NCI-H1299; 72-h MTT; Table 1; read-out: IC50 Anti-proliferative effect on cell line H 1299
Method: as §1, §2

HDM2 = target: T1, HDM2 (Homo sapiens, UniProt Q00987); experiment: Fluorescence polarisation competitive HDM2 binding assay
T1 construct: Recombinant HDM2 (1.5 μg per well) in TBS-BSA buffer
T1 sequence (Q00987 whole entry): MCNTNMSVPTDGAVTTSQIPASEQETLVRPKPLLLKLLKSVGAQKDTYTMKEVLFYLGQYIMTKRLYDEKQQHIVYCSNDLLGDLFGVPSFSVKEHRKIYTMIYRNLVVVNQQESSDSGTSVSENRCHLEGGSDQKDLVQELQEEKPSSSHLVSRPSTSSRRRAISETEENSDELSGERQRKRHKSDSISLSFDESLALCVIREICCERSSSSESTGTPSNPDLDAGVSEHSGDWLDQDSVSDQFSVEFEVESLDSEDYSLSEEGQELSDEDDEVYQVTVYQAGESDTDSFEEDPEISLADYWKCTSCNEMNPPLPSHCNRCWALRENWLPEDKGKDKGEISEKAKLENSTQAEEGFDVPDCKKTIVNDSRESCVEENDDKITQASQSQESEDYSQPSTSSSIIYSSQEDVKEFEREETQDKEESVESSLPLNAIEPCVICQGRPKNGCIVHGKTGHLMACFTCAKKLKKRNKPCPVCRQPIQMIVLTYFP
Method: This was carried out using a 96-well microtiter plate (Costar) format. Recombinant HDM2 (1.5 μg per well) in TBS-BSA buffer (50 mM Tris pH 7.4, 150 mM NaCl, and 0.1% BSA) was incubated for 5 min at room temperature in the presence of serially diluted test compound (in TBS-BSA buffer with a final concentration of 5% DMSO). Fluorescently labelled p53-derived peptide (fluorescein-[…]NH2, 0.2 μM) was added to each well and the plate was incubated at room temperature for 45 min. The fluorescence polarisation (excitation 485 nm, emission 520 nm) of the peptide was measured. IC50 values were calculated from dose-response curves.
as §1

AGS = experiment: 72-h MTT cytotoxicity assay, AGS; type: cell-based; conditions: Homo sapiens, 72-h MTT, Table 1, read-out: IC50 Anti-proliferative effect on cell line AGS
Method: as §1, §2

p53 = p53 reporter gene assay (U2OS-derived luciferase reporter cell line); conditions: for Fold induction of luciferase activity: compared to basal luciferase activity, 16-h time point, at concentration of maximal induction; for Concentration (test compound concentration at which the p53 induction was maximal): p53 reporter, U2OS-derived cell line
[1] = fluorescence polarisation format, Table 1, read-out: IC50 In vitro competitive HDM2 binding assay
[2] = fluorescence polarisation assay, Table 3, read-out: In vitro competitive HDM2 binding assay IC50

| Structure (SMILES) | IC50 (SJSA-1) [µM] | IC50 (H1299) [µM] | IC50 (HDM2; [1]) [µM] | IC50 (AGS) [µM] | Fold induction of luciferase activity (p53) [fold] | Concentration (test compound concentration at which the p53 induction was maximal) (p53) | IC50 (HDM2; In vitro competitive HDM2 binding assay IC50, fluorescence polarisation assay, Table 3) [µM] | IC50 (HDM2; [2]) [µM] |
| --- | --- | --- | --- | --- | --- | --- | --- | --- |
| O=S(=O)(Nc1ccc(C(F)(F)F)cc1)c1cc(S(=O)(=O)Nc2ccc(C(F)(F)F)cc2)c(Cl)s1 [Compound 33, 5-Chlorothiophene-2,4-disulfonic acid bis-[(4-trifluoro-methyl-phenyl)-amide]] | > 100 | 69 ± 1 | 65 ± 5 | 68 ± 1 |  |  |  |  |
| COc1ccc(S(=O)(=O)Nc2cc(C(F)(F)F)cc(C(F)(F)F)c2)cc1Cl [Compound 104, N-(3,5-Bis-trifluoromethyl-phenyl)-3-chloro-4-methoxy-benzene-sulfonamide] |  |  | 151 ± 26 | 25 |  |  |  |  |
| Cn1ncc(-c2ccc(S(=O)(=O)Nc3cc(C(F)(F)F)cc(C(F)(F)F)c3)s2)c1C(F)(F)F [Compound 43, 5-(1-Methyl-5-trifluoromethyl-1H-pyrazol-4-yl)-thiophene-2-sulfonic acid (3,5-bis-trifluoromethylphenyl)amide] | 33.7 ± 0.3 | 18 ± 0.8 | 133 ± 11 | 20.9 ± 1 |  |  |  |  |
| O=[N+]([O-])c1cc(S(=O)(=O)N(Cc2ccc(C(F)(F)F)cc2)Cc2cccc(C(F)(F)F)c2)sc1Cl [Compound 75, 5-Chloro-4-nitro-thiophene-2-sulfonic acid (3-trifluoro-methyl-benzyl)-(4-trifluoromethyl-benzyl)-amide] | 18 | 16 | 3.5 ± 10 | 9 |  |  |  |  |
| CSCC[C@H](NC(=O)[C@@H](N)Cc1ccccc1)C(=O)NC(C)(C)C(=O)N[C@@H](Cc1ccc(CP(=O)(O)O)cc1)C(=O)N[C@@H](Cc1c[nH]c2cc(Cl)ccc12)C(=O)N[C@@H](CCC(=O)O)C(=O)NC1(C(=O)N[C@@H](CC(C)C)C(N)=O)CC1 [Control, H-Phe-Met-Aib-Pmp-(6-Cl-Trp)-Glu-Ac3c-Leu-NH2, reference compound] (H-FM[Aib][Pmp][Trp(6-Cl)]E[Ac3c]L-NH2) |  |  |  |  | 4 | 150 to 200 µM | 0.19 |  |
| O=S(=O)(Nc1ccc(F)cc1)c1cc(Br)c(Cl)s1 [Compound 4, 4-Bromo-5-chlorothiophene-2-sulfonic acid (4-fluorophenyl)amide] |  |  | 378 |  | <2 | 100^e μM |  | 378 |
| CN(c1ccc(Cl)cc1)S(=O)(=O)c1cc([N+](=O)[O-])c(Cl)s1 [Compound 51, 5-Chloro-4-nitrothiophene-2-sulfonic acid (4-chloro-phenyl)-methylamide] | 15.6 | 17.4 ± 3.8 | 5.9 ± 0.7 | 11.3 ± 1 |  |  |  |  |
| CN(Cc1ccc(C(F)(F)F)cc1)S(=O)(=O)c1cc([N+](=O)[O-])c(Cl)s1 [Compound 52, 5-Chloro-4-nitrothiophene-2-sulfonic acid methyl-(4-trifluoromethylbenzyl)amide] | 27.5 ± 1.3 | 28.5 ± 1.9 | 10.7 ± 0.2 | 23.3 ± 1.4 |  |  |  |  |
| O=[N+]([O-])c1cc(S(=O)(=O)Nc2cc(Cl)cc(Cl)c2)ccc1Cl [Compound 47, 4-Chloro-N-(3,5-dichlorophenyl)-3-nitro-benzenesulfonamide] | 37 ± 6 | 18 ± 8 | 234 ± 37 | 23 ± 2 |  |  |  |  |
| Cc1ccc(NS(=O)(=O)c2cc([N+](=O)[O-])c(Cl)s2)cc1 [Compound 63, 5-Chloro-4-nitro-thiophene-2-sulfonic acid p-tolylamide] | 5.7 ± 1.6 | 3.9 ± 0.9 | 35 ± 8 | 1.7 ± 0.6 | 95 | 6.4 µM |  | 35 ± 8 |
| Cc1sc(S(=O)(=O)Nc2ccc(Cl)cc2)cc1[N+](=O)[O-] [Compound 73, 5-Methyl-4-nitro-thiophene-2-sulfonic acid (4-chloro-phenyl)-amide] |  | 66 | > 167 | 53 |  |  |  |  |
| O=[N+]([O-])c1cc(S(=O)(=O)NCc2cc(F)cc(F)c2)sc1Cl [Compound 55, 5-Chloro-4-nitro-thiophene-2-sulfonic acid 3,5-difluoro-benzylamide] | 13.3 ± 2.1 | 9.3 ± 2.5 | 27 ± 10.1 | 7 | 53 | 10 µM |  | 27 ± 10.1 |
| O=[N+]([O-])c1cc(S(=O)(=O)NCCc2c[nH]c3ccc(Cl)cc23)ccc1Cl [Compound 81, 4-Chloro-N-[2-(5-chloro-1H-indol-3-yl)-ethyl]-3-nitro-benzenesulfonamide] | 51 ± 1 | 39 ± 6 | 311 ± 21 | 29 ± 2 |  |  |  |  |
| COc1ccc(NS(=O)(=O)c2cc([N+](=O)[O-])c(Cl)s2)c(C)c1 [Compound 129, 5-Chloro-4-nitro-thiophene-2-sulfonic acid (4-methoxy-2-methyl-phenyl)-amide] |  |  | 278 ± 19 |  | 5 | 100 µM |  | 278 ± 19 |
| CC(=O)Sc1sc(S(=O)(=O)Nc2ccc(Cl)cc2)cc1[N+](=O)[O-] [Compound 72, Thioacetic acid S-[5-(4-chloro-phenylsulfamoyl)-3-nitro-thiophen-2-yl] ester] |  |  | 16.2 | 61 |  |  |  |  |
| O=[N+]([O-])c1cc(S(=O)(=O)N(Cc2ccccc2)c2ccc(Cl)cc2)sc1Cl [Compound 65, 5-Chloro-4-nitro-thiophene-2-sulfonic acid benzyl-(4-chloro-phenyl)-amide] | 11.1 ± 6.7 | 10.8 ± 4.3 | 7.4 ± 1 | 5.2 ± 2.2 | 74 | 10 µM |  | 7.4 ± 1 |
| O=[N+]([O-])c1cc(S(=O)(=O)Nc2ccc(C(F)(F)F)cc2)ccc1Cl [Compound 35, 4-Chloro-3-nitro-N-(4-trifluoromethylphenyl)benzenesulfonamide] | 26.5 ± 1.6 | 9.3 ± 1.7 | 192 ± 8 | 13 ± 3.3 |  |  |  |  |
| O=[N+]([O-])c1ccc(NS(=O)(=O)c2cc(C(F)(F)F)cc(C(F)(F)F)c2)cc1Cl [Compound 105, N-(3-Chloro-4-nitro-phenyl)-3,5-bis-trifluoromethyl-benzenesulfonamide] | 37 ± 18 | 25 ± 1 | 153 ± 18 | 24 ± 3 |  |  |  |  |
| O=S(=O)(Nc1cc(C(F)(F)F)cc(C(F)(F)F)c1)c1c(Cl)cccc1Cl [Compound 128, N-(3,5-Bis-trifluoromethyl-phenyl)-2,6-dichloro-benzenesulfonamide] |  |  | 134 ± 28 | 53 |  |  |  |  |
| O=[N+]([O-])c1cc(S(=O)(=O)NCc2ccc(Cl)cc2)sc1Cl [Compound 56, 5-Chloro-4-nitro-thiophene-2-sulfonic acid 4-chloro-benzylamide] | 9.3 ± 2.7 | 6.3 ± 1.9 | 24.8 ± 5.4 | 4.3 ± 0.6 |  |  |  |  |
| O=[N+]([O-])c1cc(S(=O)(=O)Nc2cc(C(F)(F)F)cc(C(F)(F)F)c2)sc1Cl [Compound 44, 5-Chloro-4-nitrothiophene-2-sulfonic acid (3,5-bis-trifluoromethyl-phenyl)-amide] | 19 ± 3 | 14 ± 2 | 25.4 ± 0.2 | 10 |  |  |  |  |
| O=[N+]([O-])c1cc(S(=O)(=O)N(Cc2cccc(C(F)(F)F)c2)c2ccc(Cl)cc2)sc1Cl [Compound 67, 5-Chloro-4-nitro-thiophene-2-sulfonic acid (4-chloro-phenyl)-(3-trifluoromethyl-benzyl)-amide] | 11.8 ± 1.6 | 12 ± 1 | 8.5 ± 3.2 | 6.7 ± 0.9 |  |  |  |  |
| O=S(=O)(Nc1cc(C(F)(F)F)cc(C(F)(F)F)c1)c1cnc(Cl)c(Br)c1 [Compound 42, 5-Bromo-6-chloropyridine-3-sulfonic acid (3,5-bis-trifluoromethylphenyl)amide] | 65 ± 18 | 32 ± 7 | 278 ± 50 | 30 ± 7 |  |  |  |  |
| Cc1ccc(S(=O)(=O)NCCc2c[nH]c3ccc(Cl)cc23)cc1[N+](=O)[O-] [Compound 82, N-[2-(5-Chloro-1H-indol-3-yl)-ethyl]-4-methyl-3-nitro-benzenesulfonamide] | 65 ± 4 | 49 | 338 ± 111 | 50 |  |  |  |  |
| O=S(=O)(Nc1cc(Cl)cc(Cl)c1)c1ccc(Br)s1 [Compound 17, 5-Bromothiophene-2-sulfonic acid (3,5-dichlorophenyl)amide] |  |  | 291 |  |  |  |  |  |

From patent publication US20050215548A1 (Cyclacel Limited, priority 2002, published 2005)
